Laboratory results reported in patent US11980613B2, “Methods for reversing HIV latency using BAF complex modulating compounds” (priority 2018, dated 2024).

What was measured:
[1] = tested on: latent HIV-1 in ex vivo infected human CD4+ T cells; test: Ex vivo HIV latency model (Lassen), luciferase readout; assay type: cell-based
Method: [drawing 27] i. BRD-K25923209: To Macrocycle 2141-039b (0.804 g, 1.550 mmol) dissolved in MeOH (Volume: 15.50 ml) was added tin(II) chloride dihydrate (3.50 g, 15.50 mmol). […] Upon completion, the reaction mixture was concentrated and the resulting residue was dissolved in EtOAc and washed with 2 M aq. KOH (2×). The combined aqueous layers were washed with EtOAc (4×). The resulting organic layers were washed with brine, saturated aqueous NaHCO3, water, and brine, dried over MgSO4, filtered, and concentrated. […] BRD-K80443127: A screwtop vial was charged with aniline (BRD-K25923209) (43.3 mg, 0.089 mmol) and CH2Cl2 (Volume: 886 μl, Density: 1.325 g/ml). Isopropyl chloroformate (115 μl, 0.115 mmol) and DIEA (46.4 μl, 0.266 mmol) were added dropwise and reaction stirred under ambient conditions for 1 h. […] BRD-K04244835: A 2.5 mL microwave vial was charged with aniline (BRD-K25923209) (40 mg, 0.082 mmol) and EtOH (Volume: 819 μl, Density: 0.81 g/ml). Squaramide (CRE-III-001) (20.75 mg, 0.098 mmol), DIEA (42.8 μl, 0.246 mmol), and DMAP (2.000 mg, 0.016 mmol) were added in sequence and the vial was sealed. […] 9. […] 10. […] 11.

[2] = tested on: Bmi1-luciferase reporter cell line; test: Bmi1-luciferase reporter assay (screen for inhibitors of BAF-mediated transcriptional repression); assay type: cell-based, mouse; conditions: grading in words
Method: Low passage mESCs from 129 mice (20 million, p10) were electroporated with 40 μg of a linearized construct consisting of 2 kb homology upstream of the Bmi1 locus, firefly luciferase at exon 1 of Bmi1 followed by loxP neo and a 6 kb 3′ homology arm with thymidine kinase outside the homology arms. The cells were plated on 10 gelatin treated plates (60 mm) of irradiated neo resistant MEFs and selected with G418 and ganciclovir for 5 days. 384 colonies were selected, trypsinized and replated in gelatin treated 24-well plates for expansion. The cells were split and DNA was isolated for digestions with EcoRI or BamHI. We confirmed the successful homologous recombination in 7 out 384 colonies using Southern blot analysis at both the 5′ (EcoRI) and 3′ (BamHI) end (see Table S2 of Marian et al., “Small Molecule Targeting of Specific BAF (mSWI/SNF) Complexes for HIV Latency Reversal,” Cell Chem. Biol. (Dec. 20, 2018) 25: 1443-1445). We deleted the neomycin cassette using transfected Cre recombinase and confirmed the excision at all clones using a second round of Southern blot analysis at the 3′ end (BamHI).
3. Compound Treatment: 10,000 cells in 30 μL ESC media were plated in white 384 well CellBind plates. The cells were cultured in a 37° C., 5% CO2 incubator for 24 h and 100 nL/well of 0.75 mM of positive control (Pubchem SID: 85814977) or 100 nL/well of 3.75 mM compound library (primary screen) was added via pin transfer into plates. There was no effect on assay readout at DMSO concentrations up to 0.5%. The cells were cultured in a 37° C., 5% CO2 incubator for 24 h for luciferase reporter assay and 18 h for qRT-PCR assay. 4. Luciferase assay: (PubChem AID 602393 primary, PubChem AID 651717 confirmatory.) The assay plates were removed from the incubator and equilibrates for 10 minutes to room temperature. Promega SteadyGlo® solution (10 μL/well) was added to each well of the assay plates. The assay plates were mixed at 1000 rpm for 15 seconds and then incubated for 10 minutes at room temperature. The luciferase levels were read on a Perkin Elmer Envision in Ultra Sensitive Luminescence mode. Signals remained stable up to 2 hours. 5. EqRT-PCR secondary screen (PubChem AID 743180, 743177, 743176) The qRTPCR screen was performed as published^54. In brief, 5,000 ES cells were plated on gelatin-coated 384-well tissue culture plates and cultured in a 37C, 5% CO2 incubator. 24 h later, hit compounds in 100 nL DMSO were treated at eight different doses. 18 h after compound treatment cells were washed two times with 100 μL PBS and all excess PBS was removed by centrifuging the plates upside down at 1000 rpm. The Ambion® Cells-to-Ct kit was used to generate cDNA. In brief, the cells were lysed in the plate in 10 μL lysis buffer containing DNase for 10 minutes and quenched with 1 μL lysis stop buffer. The lysate (2 μL) was added to 5 μL RT reaction buffer (2×), 2.5 μL nuclease-free water and 0.5 μL Reverse transcriptase (20×) and incubated at 37° C. for 60 minutes and 95° C. for 1 minute to generate 10 μL of cDNA. cDNA (1 μL) was used in each 5 μL qPCR reaction with Roche master mix and TaqMan probes (Applied Biosystems) for Bmi1-FAM (Mm00776122_gH), Ring1a-FAM (Mm01278940_m1/4331182), or Fgf4-FAM (Mm00438916_g1/4351372) alongside actin-VIC (4352341E) for a loading control. The qPCR was run accordingly: 95° C. for 10 minutes Then 55 cycles of: 95° C. for 10 seconds followed by 60° C. for 30 seconds. The fold increase in transcription was calculated using the ΔΔCT method^84. 6. Viability Assays (PubChem AID: 743188, 743189, 743190, 1053139, 1053140, 1053141)

SMILES: CO[C@H]1CN(C)C(=O)c2cc(NC(=O)OC(C)C)ccc2OC[C@H](C)N(Cc2ccc(-c3ccccn3)cc2)C[C@@H]1C [BRD-K80443127]
- latency reversal (transcription of latent HIV-1) ([1]; 24 h treatment): efficiently triggered HIV transcription
- latency reversal in combination with other latency reversal agents ([1]; compared to single agent treatments): potentiated the effect of other latency reversal agents
- activity in the Bmi1 luciferase reporter assays [2]: high activity
